Data taken from US20240279215A1 (Cytokinetics, Incorporated, priority 2022, published 2024).

Molecular target: human NAMPT (Homo sapiens (Human), UniProt P43490)
Experiment: NMN fluorescence biochemical assay (human recombinant NAMPT enzyme assay)
Experimental: Compounds described herein were assayed for their ability to stimulate the synthesis of nicotinamide mononucleotide (NMN) by the enzyme NAMPT. The human recombinant enzyme assay measures the activation of the enzyme activity by compounds using recombinant enzyme and substrates in a buffered cell-free system. The assay conditions closely mimic cellular environments. Dose responses were measured using an assay to detect the formation of nicotinamide mono-nucleotide. All experiments were performed in the 384-well format. Generally, 0.5 μL of DMSO containing varying concentrations of the test compound was mixed with 10 μL of the enzyme reagent solution. Enzyme reactions were initiated with the addition of […] containing the substrates. The final assay conditions were as follows: 6 nM human NAMPT, 2.5 mM ATP, 20 μM PRPP and 150 μM nicotinamide in 50 mM HEPES, pH 7.2, 1 mM DTT, 1 mM CHAPS 50 mM NaCl, 100 mM MgCl2. Following an incubation of 60 min at ambient temperature, 10 μL of 20% acetophenone in DMSO was added, followed by 10 μL of 2 M KOH and 40 μL of formic acid. The plates were read for fluorescence (Excitation/Emission=355 nm/460 nm) using an EnVision plate reader after 40 mins of incubation at ambient temperature.

human NAMPT, sequence (P43490 whole entry): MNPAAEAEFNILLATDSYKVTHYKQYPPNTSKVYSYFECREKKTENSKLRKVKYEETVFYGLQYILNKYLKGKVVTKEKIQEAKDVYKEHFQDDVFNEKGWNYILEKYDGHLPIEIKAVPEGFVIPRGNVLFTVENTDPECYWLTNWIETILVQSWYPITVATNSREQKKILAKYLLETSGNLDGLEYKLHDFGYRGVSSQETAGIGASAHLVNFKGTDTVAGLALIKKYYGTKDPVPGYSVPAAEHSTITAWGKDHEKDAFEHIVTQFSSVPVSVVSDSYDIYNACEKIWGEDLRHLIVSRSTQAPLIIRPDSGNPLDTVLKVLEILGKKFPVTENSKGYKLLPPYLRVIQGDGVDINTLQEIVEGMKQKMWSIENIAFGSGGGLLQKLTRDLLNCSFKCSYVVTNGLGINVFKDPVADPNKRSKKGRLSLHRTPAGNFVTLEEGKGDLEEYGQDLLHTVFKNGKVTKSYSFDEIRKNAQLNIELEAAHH

| SMILES | AC1.4 Human | EC50 |
| --- | --- | --- |
| CC(C)C(=O)N1CCC(Cc2ccc(NC(=O)OCc3cnco3)cc2)CC1 [Compound 35, oxazol-5-ylmethyl (4-((1-isobutyrylpiperidin-4-yl)methyl)phenyl)carbamate] | 0.39 µM | 37.9 µM |
| CN(Cc1ccc(NC(=O)OCc2ccc(Cl)cc2)cc1)C(=O)c1ccncc1F [Compound 36, (4-chlorophenyl)methyl N-(4-{[1-(3-fluoropyridin-4-yl)-N-methylformamido]methyl}phenyl)carbamate] | 0.40 µM | 1 µM |
| Cc1ccc(C(=O)NCc2ccc(NC(=O)OCc3ccncc3)cc2)cn1 [Compound 37, pyridin-4-ylmethyl (4-((6-methylnicotinamido)methyl)phenyl)carbamate] | 0.41 µM | 3.67 µM |
| CS(=O)(=O)N1CCC(Cc2ccc(NC(=O)OCc3ccc(Cl)cc3)cc2)CC1 [Compound 38, 4-chlorobenzyl (4-((1-(methylsulfonyl)piperidin-4-yl)methyl)phenyl)carbamate] | 0.42 µM | 1.22 µM |
| C[C@H](NC(=O)c1ccc(F)cc1)c1ccc(NC(=O)OCc2cnco2)cc1 [Compound 39, 1,3-oxazol-5-ylmethyl N-{4-[(1S)-1-[(4-fluorophenyl)formamido]ethyl]phenyl}carbamate] | 0.43 µM | 19.2 µM |
| CN(Cc1ccc(NC(=O)OCc2ccc(Cl)cc2)cc1)C(=O)c1cn[nH]c1 [Compound 41, (4-chlorophenyl)methyl N-{4-[(N-methyl-1-1H-pyrazol-4-ylformamido)methyl]phenyl}carbamate] | 0.44 µM | 3.48 µM |
| COC1CCN(C(=O)N(C)Cc2ccc(NC(=O)OCc3ccc(Cl)cc3)cc2)CC1 [Compound 42, 4-chlorobenzyl (4-((4-methoxy-N-methylpiperidine-1-carboxamido)methyl)phenyl)carbamate] | 0.44 µM | 5.66 µM |
| C[C@H](NC(=O)c1ccncc1F)c1ccc(NC(=O)OCc2ccc(Cl)cc2)cc1 [Compound 44, (4-chlorophenyl)methyl N-{4-[(1S)-1-[(3-fluoropyridin-4-yl)formamido]ethyl]phenyl}carbamate] | 0.45 µM | 4.19 µM |
| Cc1cnn(C)c1C(=O)NCc1ccc(NC(=O)OCc2ccc(Cl)cc2)cc1 [Compound 45, (4-chlorophenyl)methyl N-(4-{[(2,4-dimethylpyrazol-3-yl)formamido]methyl}phenyl)carbamate] | 0.46 µM | 1.88 µM |
| Cc1noc(C(=O)N[C@@H](C)c2ccc(NC(=O)OCc3ccc(Cl)cc3)cc2)c1C [Compound 46, 4-chlorobenzyl (S)-(4-(1-(3,4-dimethylisoxazole-5-carboxamido)ethyl)phenyl)carbamate] | 0.48 µM | 2.58 µM |
| COc1ccc(COC(=O)Nc2ccc([C@@H](C)C(=O)N3CCC[C@H]3CO)cc2)cc1 [Compound 47] | 0.49 µM | 9.61 µM |
| O=C(Nc1ccc(CC2CCN(C(=O)C3COC3)CC2)cc1)OCc1cnco1 [Compound 48, oxazol-5-ylmethyl (4-((1-(oxetane-3-carbonyl)piperidin-4-yl)methyl)phenyl)carbamate] | 0.49 µM | 31 µM |
| CN(Cc1ccc(NC(=O)OCc2ccc(Cl)cc2)cc1)C(=O)c1cc[nH]n1 [Compound 49, (4-chlorophenyl)methyl N-{4-[(N-methyl-1-1H-pyrazol-3-ylformamido)methyl]phenyl}carbamate] | 0.50 µM | 2.02 µM |
| CN(Cc1ccc(NC(=O)OCc2ccc(Cl)cc2)cc1)C(=O)c1ccnn1C [Compound 50, (4-chlorophenyl)methyl N-(4-{[N-methyl-1-(2-methylpyrazol-3-yl)formamido]methyl}phenyl)carbamate] | 0.50 µM | 0.89 µM |
| Cc1ccc(Cc2ccc(NC(=O)OCc3cnco3)cc2)cn1 [Compound 51, oxazol-5-ylmethyl (4-((6-methylpyridin-3-yl)methyl)phenyl)carbamate] | 0.50 µM | 40.3 µM |
| COc1ccc(COC(=O)Nc2ccc(CNC(=O)c3ccc(C)nc3)cc2)cc1 [Compound 53, (4-methoxyphenyl)methyl N-(4-{[(6-methylpyridin-3-yl)formamido]methyl}phenyl)carbamate] | 0.51 µM | 5.89 µM |
| CN1CC(=O)NC[C@@H]1c1ccc(NC(=O)OCc2ccc(Cl)cc2)cc1 [Compound 54, 4-chlorobenzyl (S)-(4-(1-methyl-5-oxopiperazin-2-yl)phenyl)carbamate] | 0.51 µM | 8.45 µM |
| CN(Cc1ccc(NC(=O)OCc2ccc(Cl)cc2)cc1)C(=O)c1c(F)cncc1F [Compound 55, (4-chlorophenyl)methyl N-(4-{[1-(3,5-difluoropyridin-4-yl)-N-methylformamido]methyl}phenyl)carbamate] | 0.51 µM | 1.82 µM |
| COCCn1nccc1C(=O)N[C@@H](C)c1ccc(NC(=O)OCc2ccc(Cl)cc2)cc1 [Compound 56, (4-chlorophenyl)methyl N-{4-[(1S)-1-{[2-(2-methoxyethyl)pyrazol-3-yl]formamido}ethyl]phenyl}carbamate] | 0.53 µM | 2.8 µM |
| C[C@H](NC(=O)c1c(F)cncc1F)c1ccc(NC(=O)OCc2ccc(Cl)cc2)cc1 [Compound 57, (4-chlorophenyl)methyl N-{4-[(1S)-1-[(3,5-difluoropyridin-4-yl)formamido]ethyl]phenyl}carbamate] | 0.54 µM | 1.29 µM |
| CN(C)C(=O)N1CCC(Cc2ccc(NC(=O)OCc3ccc(Cl)cc3)cc2)CC1 [Compound 58, 4-chlorobenzyl (4-((1-(dimethylcarbamoyl)piperidin-4-yl)methyl)phenyl)carbamate] | 0.55 µM | 1.73 µM |
| Cc1ccc(C(=O)N[C@@H](C)c2ccc(NC(=O)OCc3ccc(Cl)cc3)cc2)cn1 [Compound 60, 4-chlorobenzyl (S)-(4-(1-(6-methylnicotinamido)ethyl)phenyl)carbamate] | 0.57 µM | 1.91 µM |
| COc1ccc(COC(=O)Nc2ccc(NS(=O)(=O)Cc3ccccc3)cc2)cc1 [Compound 61, 4-methoxybenzyl (4-((phenylmethyl)sulfonamido)phenyl)carbamate] | 0.57 µM | 2.62 µM |
| NC(=O)N1CCC(Cc2ccc(NC(=O)OCc3ccc(Cl)cc3)cc2)CC1 [Compound 62, 4-chlorobenzyl (4-((1-carbamoylpiperidin-4-yl)methyl)phenyl)carbamate] | 0.57 µM | 2.64 µM |
| O=C(Nc1ccc(CN2C(=O)CC3CC32)cc1)OCc1ccc(Cl)cc1 (stereo not shown) [Compound 63, (4-chlorophenyl)methyl N-[4-({3-oxo-2-azabicyclo[3.1.0]hexan-2-yl}methyl)phenyl]carbamate] | 0.57 µM | 4.93 µM |
| CO[C@H]1CC[C@H](NC(=O)Cc2ccc(NC(=O)OCc3ccc(Cl)cc3)cc2)CC1 [Compound 64, (4-chlorophenyl)methyl N-[4-({[(1R,4R)-4-methoxycyclohexyl]carbamoyl}methyl)phenyl]carbamate] | 0.58 µM | 4.22 µM |
